Data as given in patent US11572399B2, “Long-acting GIP peptide analogues” (University of Copenhagen, priority 2017, dated 2023).
Where two headings read alike, the source gives them in different places. Peptide text beside a SMILES is read from it. * marks the point of attachment. C16 diacid = O=C(O)CCCCCCCCCCCCCCC(=O)*; Palmitoyl = CCCCCCCCCCCCCCCC(=O)*

Assays:
human GIP receptor [1] = molecular target: T1, human GIP receptor (Homo sapiens, UniProt P48546); test: cAMP accumulation assay, antagonism of a GIP-mediated cAMP response (50-80% of max); assay type: cell-based; details: for cAMP - antagonisme fold (paired): fold vs GIP(3-30)NH2, Table 3b; for Fold change of IC50 versus GIP(5-30)NH2: fold change of IC50 from GIP(5-30)NH2
T1 construct: host or cells: COS-7, transient transfection (calcium phosphate), cDNA in pCMV-Script
T1 sequence (P48546 22-466): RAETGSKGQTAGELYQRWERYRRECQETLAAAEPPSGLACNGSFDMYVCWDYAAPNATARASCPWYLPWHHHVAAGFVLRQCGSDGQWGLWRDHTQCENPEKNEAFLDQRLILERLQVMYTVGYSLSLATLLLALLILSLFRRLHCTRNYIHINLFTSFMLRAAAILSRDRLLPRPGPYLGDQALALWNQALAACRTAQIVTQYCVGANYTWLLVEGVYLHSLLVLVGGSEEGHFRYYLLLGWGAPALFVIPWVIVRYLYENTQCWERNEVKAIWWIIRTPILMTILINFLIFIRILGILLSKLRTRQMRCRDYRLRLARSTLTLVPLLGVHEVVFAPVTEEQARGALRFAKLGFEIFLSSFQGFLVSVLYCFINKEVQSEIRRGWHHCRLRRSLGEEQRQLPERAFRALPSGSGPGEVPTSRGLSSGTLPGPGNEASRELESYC
Method: The day after, the cells were washed twice with Hepes buffered saline (HBS) buffer and incubated with HBS and 1 mM 3-isobutyl-1-methylxanthine (IBMX) for 30 min at 37° C. […] The HitHunter™ cAMP XS assay (DiscoveRx) was carried out according to the manufacturer's instructions.

human GIP receptor [2] = molecular target: T1, human GIP receptor; test: cAMP accumulation assay, agonism (ligand alone); assay type: cell-based; details: Table 1; for Emax: COS-7, intrinsic cAMP activity
human GIP receptor [3] = molecular target: T1, human GIP receptor; test: 125I-human GIP competition binding assay, in the presence and absence of 2% HSA; details: for Fold change HSA (2%)/Casein (0.1%): IC50 (plus HSA)/IC50 (minus HSA); for Binding fold (paired): fold decrease in affinity compared to GIP(3-30)NH2; for Fold change in affinity, IC50 (plus HSA)/IC50 (minus HSA): presence vs absence of 2% HSA, proxy for albumin binding; for Binding (+/−HSA) Fold: fold change +HSA/−HSA;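 as to all read-outs here: nonspecific binding taken as radioligand bound to untransfected cells, IC50 obtained from nonlinear regression fits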
[4] = heterologous competition binding, transiently transfected COS-7 cells expressing the human GIP receptor, read-out: Binding
[5] = transiently transfected COS-7 cells, Table 1 and text, read-out: cAMP antagonism nM (IC50, antagonistic potency)
[6] = 0.1% casein, no HSA, Table 3b, read-out: Binding logIC50 0.1% casein (converted)
[7] = 2% HSA, Table 3b, read-out: Binding logIC50 2% HSA (converted)
[8] = Table 3b, initial data, read-out: Binding IC50
[9] = antagonism of GIP-mediated cAMP response, COS-7 cells, read-out: cAMP accumulation IC50

Compound	Emax (human GIP receptor [2]; COS-7 cells) [%]	Fold change HSA (2%)/Casein (0.1%) (human GIP receptor [3])	IC50 (human GIP receptor [3]; [4]) [nM]	cAMP - antagonisme fold (paired) (human GIP receptor [1]) [fold]	IC50 (human GIP receptor [1]; [5]) [nM]	IC50 (human GIP receptor [3]; [6]) [nM]	IC50 (human GIP receptor [3]; [7]) [nM]	IC50 (human GIP receptor [3]; [8]) [nM]	Binding fold (paired) (human GIP receptor [3]; Table 3b) [fold]	Fold change in affinity, IC50 (plus HSA)/IC50 (minus HSA) (human GIP receptor [3]) [fold]	IC50 (human GIP receptor [1]; [9]) [nM]	Fold change of IC50 versus GIP(5-30)NH2 (human GIP receptor [1])	Binding (+/−HSA) Fold (human GIP receptor [3])	Ki (human GIP receptor [3]; presence of 2% HSA) [nM]	further results
CCCCCCCCCCCCCCCC(=O)N[C@H](C(=O)N[C@@H](Cc1ccccc1)C(=O)N[C@H](C(=O)N[C@@H](CO)C(=O)N[C@@H](CC(=O)O)C(=O)N[C@@H](Cc1ccc(O)cc1)C(=O)N[C@@H](CO)C(=O)N[C@H](C(=O)N[C@@H](C)C(=O)N[C@@H](CCSC)C(=O)N[C@@H](CC(=O)O)C(=O)N[C@@H](CCCNC(=N)N)C(=O)N[C@H](C(=O)N[C@@H](Cc1c[nH]cn1)C(=O)N[C@@H](CCC(N)=O)C(=O)N[C@@H](CCC(N)=O)C(=O)N[C@@H](CC(=O)O)C(=O)N[C@@H](Cc1ccccc1)C(=O)N[C@H](C(=O)N[C@@H](CC(N)=O)C(=O)N[C@@H](Cc1c[nH]c2ccccc12)C(=O)N[C@@H](CC(C)C)C(=O)N[C@@H](CC(C)C)C(=O)N[C@@H](C)C(=O)N[C@@H](CCC(N)=O)C(=O)N[C@@H](CCCNC(=N)N)C(N)=O)C(C)C)[C@@H](C)CC)[C@@H](C)CC)[C@@H](C)CC)[C@@H](C)O [AT135, [hGIP(5-30)NH2[K16R; K30R]-C16/5]] (Palmitoyl-TFISDYSIAMDRIHQQDFVNWLLAQR-NH2)	0	0.2	5940												Ability to antagonize the GIP-mediated cAMP response (in words) (human GIP receptor [1]): failed to antagonize; IC50 (human GIP receptor [3]; binding in 0.1% casein (absence of HSA), log value, read-out: logIC50 0.1% casein (converted)): 6310 nM
CCCCCCCCCCCCCCCC(=O)NCCCC[C@H](NC(=O)[C@@H](NC(=O)[C@H](CCCCN)NC(=O)[C@H](CC(=O)O)NC(=O)[C@H](CC(C)C)NC(=O)[C@H](C)NC(=O)[C@@H](NC(=O)[C@H](CO)NC(=O)[C@H](Cc1ccc(O)cc1)NC(=O)[C@H](CC(=O)O)NC(=O)[C@H](CO)NC(=O)[C@@H](NC(=O)[C@H](Cc1ccccc1)NC(=O)[C@@H](NC(=O)CNC(=O)[C@@H](N)CCC(=O)O)[C@@H](C)O)[C@@H](C)CC)[C@@H](C)CC)[C@@H](C)CC)C(=O)N[C@@H](CCC(N)=O)C(=O)N[C@@H](CCC(N)=O)C(=O)N[C@@H](CC(=O)O)C(=O)N[C@@H](Cc1ccccc1)C(=O)N[C@H](C(=O)N[C@@H](CC(N)=O)C(=O)N[C@@H](Cc1c[nH]c2ccccc12)C(=O)N[C@@H](CC(C)C)C(=O)N[C@@H](CC(C)C)C(=O)N[C@@H](C)C(=O)N[C@@H](CCC(N)=O)C(=O)N[C@@H](CCCCN)C(N)=O)C(C)C [AT143, [hGIP(3-30)NH2[M14L; H18K]-C16/18]] (H-EGTFISDYSIALDKIK(Palmitoyl)QQDFVNWLLAQK-NH2; N-terminus assumed)	40		80	0.3	15	86.1	105	86.1	11	1.2					
CC[C@H](C)[C@H](NC(=O)[C@H](CO)NC(=O)[C@H](Cc1ccc(O)cc1)NC(=O)[C@H](CC(=O)O)NC(=O)[C@H](CO)NC(=O)[C@@H](NC(=O)[C@H](Cc1ccccc1)NC(=O)[C@@H](N)[C@@H](C)O)[C@@H](C)CC)C(=O)N[C@@H](C)C(=O)N[C@@H](CCSC)C(=O)N[C@@H](CC(=O)O)C(=O)N[C@@H](CCCCN)C(=O)N[C@H](C(=O)N[C@@H](Cc1c[nH]cn1)C(=O)N[C@@H](CCC(N)=O)C(=O)N[C@@H](CCC(N)=O)C(=O)N[C@@H](CC(=O)O)C(=O)N[C@@H](Cc1ccccc1)C(=O)N[C@H](C(=O)N[C@@H](CC(N)=O)C(=O)N[C@@H](CCCCNC(=O)CCCCCCCCCCCCCCC(=O)O)C(=O)N[C@@H](CC(C)C)C(=O)N[C@@H](CC(C)C)C(=O)N[C@@H](C)C(=O)N[C@@H](CCC(N)=O)C(=O)N[C@@H](CCCCN)C(N)=O)C(C)C)[C@@H](C)CC [AT185, [hGIP(5-30)NH2[W25K]-C16diacid/25]] (H-TFISDYSIAMDKIHQQDFVNK(C16 diacid)LLAQK-NH2; N-terminus assumed)	18	4.7			44						66.1	2.4	5.0	337	EC50 (human GIP receptor [2]; given as log EC50 (negative sign), read-out: cAMP agonism EC50 (log) (converted)): 100 nM
CC[C@H](C)[C@H](NC(=O)[C@H](CO)NC(=O)[C@H](Cc1ccc(O)cc1)NC(=O)[C@H](CC(=O)O)NC(=O)[C@H](CO)NC(=O)[C@@H](NC(=O)[C@H](Cc1ccccc1)NC(=O)[C@@H](N)[C@@H](C)O)[C@@H](C)CC)C(=O)N[C@@H](C)C(=O)N[C@@H](CCSC)C(=O)N[C@@H](CC(=O)O)C(=O)N[C@@H](CCCCN)C(=O)N[C@H](C(=O)N[C@@H](Cc1c[nH]cn1)C(=O)N[C@@H](CCC(N)=O)C(=O)N[C@@H](CCC(N)=O)C(=O)N[C@@H](CC(=O)O)C(=O)N[C@@H](Cc1ccccc1)C(=O)N[C@@H](CCCCNC(=O)CCCCCCCCCCCCCCC(=O)O)C(=O)N[C@@H](CC(N)=O)C(=O)N[C@@H](Cc1c[nH]c2ccccc12)C(=O)N[C@@H](CC(C)C)C(=O)N[C@@H](CC(C)C)C(=O)N[C@@H](C)C(=O)N[C@@H](CCC(N)=O)C(=O)N[C@@H](CCCCN)C(N)=O)[C@@H](C)CC [AT183, [hGIP(5-30)NH2[V23K]-C16diacid/23]] (H-TFISDYSIAMDKIHQQDFK(C16 diacid)NWLLAQK-NH2; N-terminus assumed)	0	1.8										55.0	4.4		
CCCCCCCCCCCCCC(=O)NCCCC[C@H](NC(=O)[C@H](CC(=O)O)NC(=O)[C@H](CCSC)NC(=O)[C@H](C)NC(=O)[C@@H](NC(=O)[C@H](CO)NC(=O)[C@H](Cc1ccc(O)cc1)NC(=O)[C@H](CC(=O)O)NC(=O)[C@H](CO)NC(=O)[C@@H](NC(=O)[C@H](Cc1ccccc1)NC(=O)[C@@H](NC(=O)CNC(=O)[C@@H](N)CCC(=O)O)[C@@H](C)O)[C@@H](C)CC)[C@@H](C)CC)C(=O)N[C@H](C(=O)N[C@@H](Cc1c[nH]cn1)C(=O)N[C@@H](CCC(N)=O)C(=O)N[C@@H](CCC(N)=O)C(=O)N[C@@H](CC(=O)O)C(=O)N[C@@H](Cc1ccccc1)C(=O)N[C@H](C(=O)N[C@@H](CC(N)=O)C(=O)N[C@@H](Cc1c[nH]c2ccccc12)C(=O)N[C@@H](CC(C)C)C(=O)N[C@@H](CC(C)C)C(=O)N[C@@H](C)C(=O)N[C@@H](CCC(N)=O)C(=O)N[C@@H](CCCCN)C(N)=O)C(C)C)[C@@H](C)CC [AT111, [hGIP(3-30)NH2—C14/16]]	0	5.1	261	3.3	22	407	2090	261	31	5.1					IC50 (human GIP receptor [1]; given as log IC50 (negative sign), transiently transfected COS-7 cells, Table 1, read-out: cAMP antagonism log (converted)): 25.1 nM; IC50 (human GIP receptor [3]; binding in presence of 2% HSA, read-out: logIC50 2% HSA (converted)): 2090 nM
CC[C@H](C)[C@H](NC(=O)[C@H](CO)NC(=O)[C@H](Cc1ccc(O)cc1)NC(=O)[C@H](CC(=O)O)NC(=O)[C@H](CO)NC(=O)[C@@H](NC(=O)[C@H](Cc1ccccc1)NC(=O)[C@@H](N)[C@@H](C)O)[C@@H](C)CC)C(=O)N[C@@H](C)C(=O)N[C@@H](CCSC)C(=O)N[C@@H](CC(=O)O)C(=O)N[C@@H](CCCCN)C(=O)N[C@H](C(=O)N[C@@H](CCCCNC(=O)CCCCCCCCCCCCCCC(=O)O)C(=O)N[C@@H](CCC(N)=O)C(=O)N[C@@H](CCC(N)=O)C(=O)N[C@@H](CC(=O)O)C(=O)N[C@@H](Cc1ccccc1)C(=O)N[C@H](C(=O)N[C@@H](CC(N)=O)C(=O)N[C@@H](Cc1c[nH]c2ccccc12)C(=O)N[C@@H](CC(C)C)C(=O)N[C@@H](CC(C)C)C(=O)N[C@@H](C)C(=O)N[C@@H](CCC(N)=O)C(=O)N[C@@H](CCCCN)C(N)=O)C(C)C)[C@@H](C)CC [AT156, [hGIP(5-30)NH2[H18K]-C16diacid/18]] (H-TFISDYSIAMDKIK(C16 diacid)QQDFVNWLLAQK-NH2; N-terminus assumed)	12				12						24	0.9	5.8	29	EC50 (human GIP receptor [2]; COS-7 cells, read-out: cAMP agonism nM (EC50)): 2 nM; Ki (human GIP receptor [3]; absence of HSA): 5 nM
